# From patent US20120039826A1, “COSMETIC COMPOSITION FOR SKIN LIGHTENING” (priority 2009, published 2012)
# Tested on: Keratinocytes (HaCaT cells)
# Assay: Keratinocyte differentiation assay
# Type: cell-based
# Conditions: HaCaT cells cultured with active 24 hours, acridine orange, % of control (control = 100)
# Protocol: Keratinocyte Differentiation Assay
# This is an in vitro cell culture based assay to evaluate the capability of these actives to alter cell differentiation process. Keratinocytes (HaCaT cells—5×10^4 cells/well) were grown in 24 well plates for 24 hours. These proliferating keratinocytes were further cultured with actives for 24 hours. Cells were then washed with PBS and stained with acridine orange in PBS (Sigma Chemical Co, USA). Cells were washed 15 minutes later and viewed using an epi-fluorescent microscope (Olympus BX 50), at 20× magnification, using appropriate excitation and barrier filters, to simultaneously view red and green fluorescence (excitation: 460 nm and emission >515 nm). The entire plate was scanned and the percentage of differentiated keratinocytes (cells with red fluorescence evenly distributed within the cytoplasm) was estimated. Data were represented as % of control. Higher % values indicate increased cell differentiation.
SMILES,% Differentiation (concentration 0.002%),% Differentiation (concentration 0.01%)
CC(=O)O.N [Ammonium acetate],175%,
CC(=O)[O-].CC(=O)[O-].[Mg+2] [Magnesium acetate],250%,237%
"O=C([O-])C(O)C(O)C(=O)[O-].[Na+].[Na+] (stereo not drawn) [Na tartarate (c4), Na tartarate]",,165%
CC(=O)[O-].[Na+] [Sodium acetate],175%,168%
